In PMC3909880 (Nature communications, 2013):
Values after ≈ are worked out from the molar mass of the structure shown.

Assays:
[1] = system: M. tuberculosis H37Rv; assay: microbe, parasite or virus in culture; format: cell-based, Mycobacterium tuberculosis; conditions: for MIC: Mycobacterium tuberculosis, H37RV, read-out: MIC for H37Rv; for MIC for H37Rv: M. tuberculosis H37Rv parental strain
[2] = system: M. tuberculosis strains H37Rv, V4207, V2475, KZN494, TF274, R506; conditions: MDR strains V2475 and KZN494; cited from earlier work
[3] = system: M. tuberculosis H37Rv; format: in vivo, Mycobacterium tuberculosis; conditions: 10 mg/kg oral gavage daily (5 days per week), BALB/c mice

Compound	MIC [1] [mg/L]	further results
CC[C@@H](CO)NCCN[C@@H](CC)CO [Ethambutol]	1 (≈ 4.89 µM)	–
NCC[C@H](O)C(=O)N[C@@H]1C[C@H](N)[C@@H](O[C@H]2O[C@H](CN)[C@@H](O)[C@H](O)[C@H]2O)[C@H](O)[C@H]1O[C@H]1O[C@H](CO)[C@@H](O)[C@H](N)[C@H]1O [Amikacin]	1 (≈ 1.71 µM)	–
CC(C)=CCC/C(C)=C/CNCCNC1C2CC3CC(C2)CC1C3 (centres unmarked) [SQ109]	0.25 (≈ 0.756 µM)	–
NNC(=O)c1ccncc1 [Isoniazid]	0.04 (≈ 0.292 µM)	Susceptibility of the MDR strains [2]: resistant; Mean lung CFU counts (standard deviation), Day 7 [3]: 5.508 (0.124) log10 CFU/lung; Mean lung CFU counts (standard deviation), Day 14 [3]: 5.266 (0.089) log10 CFU/lung; Mean lung CFU counts (standard deviation), Day 28 [3]: 4.561 (0.088) log10 CFU/lung
Capreomycin	–	MIC for H37Rv [1]: 1 mg/L
C[C@H]1COc2c(N3CCN(C)CC3)c(F)cc3c(=O)c(C(=O)O)cn1c23 [Levofloxacin]	0.25 (≈ 0.692 µM)	–
COc1c(N2C[C@@H]3CCCN[C@@H]3C2)c(F)cc2c(=O)c(C(=O)O)cn(C3CC3)c12 [Moxifloxacin]	0.0625 to 0.125 (≈ 0.156 to 0.311 µM)	–
CO[C@H]1/C=C/O[C@@]2(C)Oc3c(C)c(O)c4c(O)c(c(/C=N/N5CCN(C)CC5)c(O)c4c3C2=O)NC(=O)/C(C)=C\C=C\[C@H](C)[C@H](O)[C@@H](C)[C@@H](O)[C@@H](C)[C@H](OC(C)=O)[C@@H]1C [Rifampin]	0.125 (≈ 0.152 µM)	Susceptibility of the MDR strains [2]: resistant
NC[C@H]1O[C@H](O[C@H]2[C@H](O)[C@@H](O[C@H]3O[C@H](CO)[C@@H](O)[C@H](N)[C@H]3O)[C@H](N)C[C@@H]2N)[C@H](O)[C@@H](O)[C@@H]1O [Kanamycin]	–	MIC for H37Rv [1]: 2 mg/L
